# Experimental data from patent publication US11498923B2 (Merck Sharp & Dohme Corp., priority 2017, dated 2022).
# Molecular target: T1, human A2a receptor (Homo sapiens, UniProt P29274)
# T1 construct: purchased Perkin-Elmer RBHA2AM400UA; host or cells: HEK293 cells, used as a membrane preparation
# Test: A2a receptor competition binding assay (Scintillation Proximity)
# Conditions: membranes from HEK293 cells expressing human A2a receptor; 0.5 nM tritiated ligand; Cheng-Prusoff; read-out: A2a Ki
# Procedure, shortened: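 Ki values were obtained with the Cheng-Prusoff equation from competition curves against 0.5 nM tritiated antagonist, scintillation proximity counting after 1 h room-temperature incubation. Receptor came from HEK293 membranes pretreated with adenosine deaminase; compound final range 3000–0.15 nM, buffer Ca/Mg-free PBS with 10 mM MgCl2.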
# T1 sequence (P29274 whole entry): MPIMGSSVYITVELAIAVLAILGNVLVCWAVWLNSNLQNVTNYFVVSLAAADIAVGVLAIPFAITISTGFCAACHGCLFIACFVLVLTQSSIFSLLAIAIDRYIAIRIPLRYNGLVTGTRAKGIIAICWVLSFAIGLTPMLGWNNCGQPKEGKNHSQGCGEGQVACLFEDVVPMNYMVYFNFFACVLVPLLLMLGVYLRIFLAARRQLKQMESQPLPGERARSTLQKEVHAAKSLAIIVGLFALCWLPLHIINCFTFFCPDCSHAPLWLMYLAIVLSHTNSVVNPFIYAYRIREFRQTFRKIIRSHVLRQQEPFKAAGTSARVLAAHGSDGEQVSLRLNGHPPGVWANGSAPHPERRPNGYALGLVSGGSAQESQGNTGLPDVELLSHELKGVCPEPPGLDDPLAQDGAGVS
row,Structure (SMILES),Ki
1,"Nc1nc2c(F)cccc2c2nc(Cc3ccc(-c4nnc(CN5CCOCC5)o4)cc3)cn12 [Ex-91, 7-fluoro-2-(4-(5-(morpholinomethyl)-1,3,4-oxadiazol-2-yl)benzyl)imidazo[1,2-c]quinazolin-5-amine]",65 nM
2,"COc1cccc2c1nc(N)n1cc(C(=O)N3CCOC(C)(C)C3)nc21 [Ex-187, (5-amino-7-methoxyimidazo[1,2-c]quinazolin-2-yl)(2,2-dimethylmorpholino) methanone]",190 nM
3,"Nc1nc2c(F)cccc2c2nc(Cc3cccc4c3CCNC4)cn12 [Ex-52, 7-fluoro-2-((1,2,3,4-tetrahydroisoquinolin-5-yl)methyl)imidazo-[1,2-c]quinazolin-5-amine]",11 nM
4,"Nc1nc2c(F)cccc2c2nc(CC3CCN(Cc4ccccc4)CC3)cn12 [Ex-304, 2-((1-benzylpiperidin-4-yl)methyl)-7-fluoro-imidazo[1,2-c]quina-zolin-5-amine]",45 nM
5,"Nc1nc2c(F)cccc2c2nc(C(=O)N3CCC4(CCN(C(=O)Cc5ccc(F)c(F)c5)C4)C3)cn12 (stereo not shown) [Ex-282, 1-(7-(5-amino-7-fluoroimidazo[1,2-c]quinazoline-2-carbonyl)-2,7-diazaspiro[4.4]nonan-2-yl)-2-(3,4-difluorophenyl)ethan-1-one]",32 nM
6,"CC(=O)N1CCC2(CCN(C(=O)c3cn4c(N)nc5c(F)cccc5c4n3)CC2)C1 [Ex-269, 1-(8-(5-amino-7-fluoroimidazo[1,2-c]quinazoline-2-carbonyl)-2,8-diazaspiro[4.5]decan-2-yl)ethan-1-one]",200 nM
7,"COc1cccc2c1nc(N)n1cc(C(=O)N3CCO[C@@H](C)C3)nc21 [Ex-182, (S)-(5-amino-7-methoxyimidazo[1,2-c]quinazolin-2-yl)(2-methylmorpholino) methanone]",75 nM
8,"COc1ccc(N2CCN(CCc3cn(Cc4cn5c(N)nc6c(F)cccc6c5n4)nn3)CC2)cc1 [Ex-97, 7-fluoro-2-((4-(2-(4-(4-methoxyphenyl)piperazin-1-yl)ethyl)-1H-1,2,3-triazol-1-yl)methyl)imidazo[1,2-c]quinazolin-5-amine]",96 nM
9,"CC(=O)Nc1ccc2c(c1)CCN(C(=O)c1cn3c(N)nc4c(F)cccc4c3n1)C2 [Ex-288, N-(2-(5-amino-7-fluoroimidazo[1,2-c]quinazoline-2-carbonyl)-1,2,3,4-tetrahydroisoquinolin-6-yl)acetamide]",55 nM
10,"COc1ccc(CNc2nc3c(F)cccc3c3nc(C(=O)N4Cc5ccc(Br)cc5C4)cn23)c(OC)c1 [Ex-164, (5-bromoisoindolin-2-yl)(5-((2,4-dimethoxybenzyl)amino)-7-fluoroimidazo[1,2-c]quinazolin-2-yl)methanone]",> 2200 nM
11,"CC(=O)Nc1ccc2c(c1)CN(C(=O)c1cn3c(N)nc4c(F)cccc4c3n1)CC2 [Ex-244, N-(2-(5-amino-7-fluoroimidazo[1,2-c]quinazoline-2-carbonyl)-1,2,3,4-tetrahydroisoquinolin-7-yl)acetamide]",49.6 nM
12,"COc1cccc2c1nc(N)n1cc(C(=O)N3CC[C@@H](CF)C3)nc21 [Ex-214, (R)-(5-amino-7-methoxyimidazo[1,2-c]quinazolin-2-yl)(3-(fluoromethyl)pyrrolidin-1-yl)methanone]",11 nM
13,"COc1cccc2c1nc(N)n1cc(Cc3ccccc3CN3CCOCC3)nc21 [Ex-26, 7-methoxy-2-(2-(morpholinomethyl)benzyl)imidazo[1,2-c]quinazolin-5-amine]",0.4 nM
14,"CC(=O)N1CCC2(CCN(C(=O)c3cn4c(N)nc5c(F)cccc5c4n3)C2)C1 (stereo not shown) [Ex-274, 1-(7-(5-amino-7-fluoroimidazo[1,2-c]quinazoline-2-carbonyl)-2,7-diazaspiro[4.4]nonan-2-yl)ethan-1-one]",32 nM
15,"Nc1nc2c(F)cccc2c2nc(Cc3cccc(-c4cccnc4)c3)cn12 [Ex-74, 7-fluoro-2-(3-(pyridin-3-yl)benzyl)imidazo[1,2-c]quinazolin-5-amine]",4.5 nM
16,"Nc1nc2c(F)cccc2c2nc(CC3CCNCC3)cn12 [Ex-303, 7-fluoro-2-(piperidin-4-ylmethyl)imidazo-[1,2-c]quinazolin-5-amine]",170 nM
17,"Nc1nc2c(F)cccc2c2nc(Cc3cccc(CN4CCOCC4)c3)cn12 [Ex-33, 7-fluoro-2-(3-(morpholinomethyl)benzyl)imidazo[1,2-c]quinazolin-5-amine]",3 nM
18,"COc1cccc2nc(N)n3cc(Cc4ccccc4)nc3c12 [Ex-05, 2-benzyl-10-methoxyimidazo[1,2-c]quinazolin-5-amine]",642 nM
19,"Nc1nc2c(F)cccc2c2nc(CC3CCN(CCc4ccccc4)CC3)cn12 [Ex-308, 7-fluoro-2-((1-phen-ethylpiperidin-4-yl)-methyl)imidazo[1,2-c]quinazolin-5-amine]",300 nM
20,"Nc1nc2c(F)cccc2c2nc(C(=O)N3CCc4cc(-c5cncnc5)ccc4C3)cn12 [Ex-287, (5-amino-7-fluoroimidazo[1,2-c]quinazolin-2-yl)(6-(pyrimidin-5-yl)-3,4-dihydroisoquinolin-2(1H)-yl)methanone]",35 nM

# Now from value to compound:
row,Ki,Structure (SMILES)
1,17 nM,"Nc1nc2c(F)cccc2c2nc(CC3CCN(C(=O)c4ccc(F)cn4)CC3)cn12 [Ex-323, (4-((5-amino-7-fluoroimidazo[1,2-c]quinazolin-2-yl)-methyl)piperidin-1-yl)(5-fluoropyridin-2-yl)methanone]"
2,11.5 nM,"COCCOc1ccc(N2CCN(Cc3ccccc3Cc3cn4c(N)nc5c(OC)cccc5c4n3)CC2)cc1 [Ex-66, 7-methoxy-2-(2-((4-(4-(2-methoxyethoxy)phenyl)piperazin-1-yl)methyl)benzyl)imidazo[1,2-c]quinazolin-5-amine]"
3,1.4 nM,"COc1cccc2c1nc(N)n1cc(Cc3ccccc3N(C)C)nc21 [Ex-20, 2-(2-(dimethylamino)benzyl)-7-methoxyimidazo[1,2-c]quinazolin-5-amine]"
4,2.5 nM,"CC(=O)N1CCN(c2ccccc2CNC(=O)c2cn3c(N)nc4c(F)cccc4c3n2)CC1 [Ex-264, N-(2-(4-acetylpiperazin-1-yl)benzyl)-5-amino-7-fluoroimidazo[1,2-c]quinazoline-2-carboxamide]"
5,12 nM,"Nc1nc2c(F)cccc2c2nc(CC3CCN(c4ncc(F)cn4)CC3)cn12 [Ex-300, 7-fluoro-2-((1-(5-fluoropyrimidin-2-yl)piperidin-4-yl)methyl)imidazo[1,2-c]quinazolin-5-amine]"
6,130 nM,"CCCN1CCC2(CCCN(C(=O)c3cn4c(N)nc5c(F)cccc5c4n3)C2)C1 (stereo not shown) [Ex-276, (5-amino-7-fluoroimidazo[1,2-c]quinazolin-2-yl)(2-propyl-2,7-diazaspiro[4.5]decan-7-yl)methanone]"
7,13 nM,"COc1cccc2c1nc(N)n1cc(CN3CC(c4cccc(Cl)c4)C3)nc21 [Ex-144, 2-((3-(3-chlorophenyl)azetidin-1-yl)methyl)-7-methoxyimidazo[1,2-c]quinazolin-5-amine]"
8,6.3 nM,"COc1cccc2c1nc(N)n1cc(Cc3ccc(C(=O)Nc4ccccc4)cc3)nc21 [Ex-89, 4-((5-amino-7-methoxyimidazo[1,2-c]quinazolin-2-yl)methyl)-N-phenylbenzamide]"
9,27 nM,"COc1cccc2c1nc(N)n1cc(C(=O)N3CCCC(F)(F)CC3)nc21 [Ex-178, (5-amino-7-methoxyimidazo[1,2-c]quinazolin-2-yl)(4,4-difluoroazepan-1-yl)methanone]"
10,31 nM,"Nc1nc2c(F)cccc2c2nc(CC3CCN(c4ccc(F)cn4)CC3)cn12 [Ex-319, 5-amino-7-fluoro-2-((1-(5-fluoropyridin-2-yl)piperidin-4-yl)-methyl)imidazo[1,2-c]quinazolin-6-ium 2,2,2-trifluoroacetate]"
11,220 nM,"Nc1nc2c(F)cccc2c2nc(CC3CCN(CC4CC4)CC3)cn12 [Ex-305, 2-((1-(cyclopropyl-methyl)piperidin-4-yl)methyl)-7-fluoro-imidazo[1,2-c]quina-zolin-5-amine]"
12,6.2 nM,"COc1cccc2c1nc(N)n1cc(Cc3cccnc3N3CCCC3)nc21 [Ex-49, 7-methoxy-2-((2-(pyrrolidin-1-yl)pyridin-3-yl)methyl)imidazo[1,2-c]quinazolin-5-amine]"
13,3.7 nM,"COCCOc1ccc(N2CCN(c3ccccc3CNC(=O)c3cn4c(N)nc5c(F)cccc5c4n3)CC2)cc1 [Ex-253, 5-amino-7-fluoro-N-(2-(4-(4-(2-methoxyethoxy)phenyl)piperazin-1-yl)benzyl)imidazo[1,2-c]quinazoline-2-carboxamide]"
14,48 nM,"Cc1ccc(CN2CCC(Cc3cn4c(N)nc5c(F)cccc5c4n3)CC2)cc1 [Ex-312, 7-fluoro-2-((1-(4-methylbenzyl)piperi-din-4-yl)methyl)-imidazo-[1,2-c]-quinazolin-5-amine]"
15,20 nM,Nc1nc2c(F)cccc2c2nc(Cc3ccccc3CN3CCN(c4nc5ccccc5o4)CC3)cn12
16,5.3 nM,"Nc1nc2c(F)cccc2c2nc(C(=O)NCc3cccc(Br)n3)cn12 [Ex-294, 5-amino-N-((6-bromopyridin-2-yl)methyl)-7-fluoroimidazo[1,2-c]quinazoline-2-carboxamide]"
17,11.2 nM,"COc1cccc2c1nc(N)n1cc(Cn3cc(COC(C)=O)nn3)nc21 [Ex-99, (1-((5-amino-7-methoxyimidazo[1,2-c]quinazolin-2-yl)methyl)-1H-1,2,3-triazol-4-yl)methyl acetate]"
18,21 nM,"COc1cccc2c1nc(N)n1cc(C(=O)N3C[C@@H](F)[C@H](F)C3)nc21 [Ex-175, (5-amino-7-methoxyimidazo[1,2-c]quinazolin-2-yl)((3R,4R)-3,4-difluoropyrrolidin-1-yl)methanone]"
19,4 nM,"Nc1nc2c(F)cccc2c2nc(CN3CCOc4ccccc43)cn12 [Ex-117, 2-((2,3-dihydro-4H-benzo[b][1,4]oxazin-4-yl)methyl)-7-fluoroimidazo[1,2-c]quinazolin-5-amine]"
20,26.4 nM,"COc1cccc2c1nc(N)n1cc(C(=O)c3ccccc3)nc21 [Ex-103, (5-amino-7-methoxyimidazo[1,2-c]quinazolin-2-yl)(phenyl)methanone]"
